Laboratory results: patent publication US9617283B2, “Bicyclic heterocycle compounds and their uses in therapy” (ASTEX THERAPEUTICS LIMITED, priority 2012, dated 2017)
Counter-ions that a name gives are not always drawn. Like-named read-outs stand apart in the source and are kept apart here.

What was measured:
[1] = test system: EVSA-T (human breast carcinoma); assay: Anti-proliferative activity, Alamar Blue assay, EVSA-T; format: cell-based
Experimental: Anti-Proliferative Activity
The method is based on the ability of viable cells to reduce resazurin to its fluorescent product resorufin. For each proliferation assay cells are plated onto 96 well plates and allowed to recover for 16 hours prior to the addition of inhibitor compounds (in 0.1% DMSO v/v) for a further 72 hours. […] The anti-proliferative activities of compounds of the invention can be determined by measuring the ability of the compounds to inhibit growth in 3 cancer cell lines: • EVSA-T (human breast carcinoma) DSMZ cat. no.

[2] = target: T1, BIR3 domain of human XIAP (residues 252-350) (Homo sapiens, UniProt P98170); assay: XIAP in vitro competitive displacement binding assay (fluorescence polarization); conditions: 1 h, percent inhibition (PI) at 0.04 μM; read-out: Xiap IC50 or PI μM
T1 construct: BIR3 domain of human XIAP (residues 252-350); His-tag (cleaved yes); made in house; host or cells: Escherichia coli

[3] = Homo sapiens, EVSA-T, 72 h, EVSA-T cell line, 72 hours, Alamar Blue; read-out: EVSA-T prolif
[4] = Homo sapiens, EVSA-T; read-out: EC50 in EVSA-T cell line assays
[5] = EVSA-T cell line, 72 hours, Alamar Blue; dihydrochloride; read-out: EVSA-T prolif

T1 sequence (P98170 252-350): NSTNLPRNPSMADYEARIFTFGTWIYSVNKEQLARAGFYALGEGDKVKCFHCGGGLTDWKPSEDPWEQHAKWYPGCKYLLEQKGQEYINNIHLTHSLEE

Row | SMILES | EC50 [1, 3] | EC50 [1, 4] | inhibition at 0.04 µM [2] | EC50 [1, 5] | EC50 ([1]; Homo sapiens, EVSA-T, read-out: EC50 in EVSA-T cell line assays)
1 | C[C@@H]1CN(CC(=O)N2CC(C)(C)c3cnc(Cc4ccc(F)cc4)cc32)[C@@H](CN2C[C@H](C)OCC2=O)CN1 (single isomer, unassigned) [Example 18, (6R or 6S)-4-{[(2R,5R)-1-(2-{6-[(4-Fluorophenyl)methyl]-3,3-dimethyl-1H,2H,3H-pyrrolo[3,2-c]pyridin-1-yl}-2-oxoethyl)-5-methylpiperazin-2-yl]methyl}-6-methylmorpholin-3-one L-lactate] | 3.5 nM | < 1000 nM | 70% | – | –
2 | C[C@@H]1CN(CC(=O)N2CC(C)(C)c3ncc(Cc4ccc(F)cc4F)cc32)[C@@H](CN2C[C@H](C)OCC2=O)CN1 (single isomer, unassigned) [Example 23, (6R or 6S)-4-{[(2R,5R)-1-(2-{6-[(2,4-Difluorophenyl)methyl]-3,3-dimethyl-1H,2H,3H-pyrrolo[3,2-b]pyridin-1-yl}-2-oxoethyl)-5-methylpiperazin-2-yl]methyl}-6-methylmorpholin-3-one, dihydrochloride] | 2.8 nM | < 1000 nM | 64% | – | –
3 | CCC1CN(C[C@H]2CN[C@H](C)CN2CC(=O)N2CC(C)(C)c3cnc(Cc4ccc(F)cc4F)cc32)C(=O)CO1 (single isomer, unassigned) [Example 80, 4-{[(2R,5R)-1-(2-{6-[(2,4-Difluorophenyl)methyl]-3,3-dimethyl-1H,2H,3H-pyrrolo[3,2-c]pyridin-1-yl}-2-oxoethyl)-5-methylpiperazin-2-yl]methyl}-(R or S)-6-ethylmorpholin-3-one dihydrochloride] | 1.8 nM | < 1000 nM | 46% | – | –
4 | CCCC(O)c1cnc2c(c1)N(C(=O)CN1C[C@@H](C)NC[C@@H]1CN1Cc3ccccc3C1=O)CC2(C)C (single isomer, unassigned) [Example 90, dihydrochloride] | – | < 1000 nM | 54% | 13 nM | –
5 | CCC1CN(C[C@H]2CN[C@H](C)CN2CC(=O)N2CC(C)(C)c3ncc([C@@H](O)c4ccc(F)cc4)cc32)C(=O)CO1 (single isomer, unassigned) [Example 110, (R or S)-6-ethyl-4-{[(2R,5R)-1-(2-{6-[(S)-(4-Fluorophenyl)(hydroxy)methyl]-3,3-dimethyl-1H,2H,3H-pyrrolo[3,2-b]pyridin-1-yl}-2-oxoethyl)-5-methylpiperazin-2-yl]methyl}morpholin-3-one dihydrochloride] | – | – | 48% | 290 nM | < 1000 nM
6 | C[C@@H]1CN(CC(=O)N2CC(C)(C)c3ncc(Cc4ccc(F)cc4)cc32)[C@@H](CN2CC(C)(C)CC2=O)CN1 [Example 1, 1-{[(2R,5R)-1-(2-{6-[(4-Fluorophenyl)methyl]-3,3-dimethyl-1H,2H,3H-pyrrolo[3,2-b]pyridin-1-yl}-2-oxoethyl)-5-methylpiperazin-2-yl]methyl}-4,4-dimethylpyrrolidin-2-one dihydrochloride] | 2.2 nM | < 1000 nM | 54% | – | –
7 | C[C@@H]1CN(CC(=O)N2CC(C)(C)c3ncc(Cc4ccc(F)cc4)cc32)[C@@H](CN2CCC(C)(C)C2=O)CN1 [Example 4, 1-{[(2R,5R)-1-(2-{6-[(4-Fluorophenyl)methyl]-3,3-dimethyl-1H,2H,3H-pyrrolo[3,2-b]pyridin-1-yl}-2-oxoethyl)-5-methylpiperazin-2-yl]methyl}-3,3-dimethylpyrrolidin-2-one dihydrochloride] | 3 nM | < 1000 nM | 34% | – | –
8 | C[C@@H]1CN(CC(=O)N2CC(C)(C)c3ncc(Cc4ccc(F)cc4)cc32)[C@@H](CN2CC(C)(C)OC2=O)CN1 [Example 5, 3-{[(2R,5R)-1-(2-{6-[(4-Fluorophenyl)methyl]-3,3-dimethyl-1H,2H,3H-pyrrolo[3,2-b]pyridin-1-yl}-2-oxoethyl)-5-methylpiperazin-2-yl]methyl}-5,5-dimethyl-1,3-oxazolidin-2-one dihydrochloride] | 6.2 nM | < 1000 nM | 44% | – | –
9 | CC1CC(=O)N(C[C@H]2CN[C@H](C)CN2CC(=O)N2CC(C)(C)c3ncc(Cc4ccc(F)cc4)cc32)C1 (stereo partly drawn) [Example 6, 1-{[(2R,5R)-1-(2-{6-[(4-Fluorophenyl)methyl]-3,3-dimethyl-1H,2H,3H-pyrrolo[3,2-b]pyridin-1-yl}-2-oxoethyl)-5-methylpiperazin-2-yl]methyl}-4-methylpyrrolidin-2-one dihydrochloride] | 1.1 nM | < 1000 nM | 48% | – | –
10 | C[C@@H]1CN(CC(=O)N2CC(C)(C)c3ncc(Cc4ccc(F)cc4)cc32)[C@@H](CN2CC3(COC3)CC2=O)CN1 [Example 12, 6-{[(2R,5R)-1-(2-{6-[(4-Fluorophenyl)methyl]-3,3-dimethyl-1H,2H,3H-pyrrolo[3,2-b]pyridin-1-yl}-2-oxoethyl)-5-methylpiperazin-2-yl]methyl}-2-oxa-6-azaspiro[3.4]octan-7-one L-lactate] | 7.1 nM | < 1000 nM | 42% | – | –
11 | C[C@@H]1CN(CC(=O)N2CC(C)(C)c3ncc(Cc4ccc(F)cc4)cc32)[C@@H](CN2Cc3ccncc3C2=O)CN1 [Example 19, 2-{[(2R,5R)-1-(2-{6-[(4-Fluorophenyl)methyl]-3,3-dimethyl-1H,2H,3H-pyrrolo[3,2-b]pyridin-1-yl}-2-oxoethyl)-5-methylpiperazin-2-yl]methyl}-1H,2H,3H-pyrrolo[3,4-c]pyridin-3-one, dihydrochloride] | 2.4 nM | < 1000 nM | 64% | – | –
12 | C[C@@H]1CN(CC(=O)N2CC(C)(C)c3nnc(Cc4ccc(F)cc4F)cc32)[C@@H](CN2Cc3ccc(O)cc3C2=O)CN1 [Example 115, 2-{[(2R,5R)-1-(2-{3-[(2,4-Difluorophenyl)methyl]-7,7-dimethyl-5H,6H,7H-pyrrolo[3,2-c]pyridazin-5-yl}-2-oxoethyl)-5-methylpiperazin-2-yl]methyl}-6-hydroxy-2,3-dihydro-1H-isoindol-1-one dihydrochloride] | – | – | 78% | – | –
13 | C[C@@H]1CN(CC(=O)N2CC(C)(C)c3ncc(Cc4ccc(F)cc4F)cc32)[C@@H](CN2Cc3ccc(O)cc3C2=O)CN1 [Example 116, 2-{[(2R,5R)-1-(2-{6-[(2,4-Difluorophenyl)methyl]-3,3-dimethyl-1H,2H,3H-pyrrolo[3,2-b]pyridin-1-yl}-2-oxoethyl)-5-methylpiperazin-2-yl]methyl}-6-hydroxy-2,3-dihydro-1H-isoindol-1-one dihydrochloride] | – | – | 79% | – | –
14 | C[C@@H]1CN(CC(=O)N2CC(C)(C)c3nnc(Cc4ccc(F)cc4F)cc32)[C@@H](CN2Cc3c(O)cccc3C2=O)CN1 [Example 117, 2-{[(2R,5R)-1-(2-{3-[(2,4-Difluorophenyl)methyl]-7,7-dimethyl-5H,6H,7H-pyrrolo[3,2-c]pyridazin-5-yl}-2-oxoethyl)-5-methylpiperazin-2-yl]methyl}-4-hydroxy-2,3-dihydro-1H-isoindol-1-one dihydrochloride] | – | – | 78% | – | –
